Measured values taken from patent US11865126B2, “Method for treating anxiety disorders, headache disorders, and eating disorders with psilocybin” (priority 2019, dated 2024).

Tested on: healthy subjects
Assay: Social Value Orientation (SVO)
Format: in vivo, human
Source text: In some embodiments, the Social Value Orientation (SVO) test is utilized to evaluate the safety and/or efficacy of psilocybin. The SVO Slider Measure has 6 primary items with 9 secondary (and optional) items. All of the items have the same general form. Each item is a resource allocation choice over a well-defined continuum of joint payoffs.
The following list of outcome measures are non-exhaustive. • a. The short-term change from Baseline (Day −1 [Visit 2]) to Day 7 (Visit 5) in cognitive measures of attention, spatial and working memory and executive function was measured by a composite score of the CANTAB Panel (Spatial Working Memory [SWM], Rapid Visual Information Processing [RVP], Paired Associates Learning [PAL]). • b. The short-term change from Baseline (Day −1 [Visit 2]) to Day 7 (Visit 5) in Social Cognition Panel scales (Pictorial Empathy Test [PET], Reading the Mind in the Eyes Test [RMET], Toronto Empathy Questionnaire [TEQ], Social Value Orientation [SVO], Scale of Social Responsibility [SSR]). • c. The change from Baseline (Day −1 [Visit 2]) to Day 28 (Visit 6) in cognitive measures of attention, spatial and working memory and executive function as measured by a composite score of the CANTAB Panel (SWM, RVP, PAL). • d. The long-term change from Baseline (Day −1 [Visit 2]) to Day 84 (Visit 7) in Social Cognition Panel scales (PET, RMET, TEQ, SVO, SSR). • e. Dose-related differences between cognitive effects of psilocybin at Baseline (Day −1 [Visit 2]), Day 7 (Visit 5) and Day 28 (Visit 6), as measured by a composite score of the CANTAB Panel (SWM, RVP, PAL). • f. Dose-related differences between psychological effects of psilocybin at Baseline (Day −1 [Visit 2]), Day 7 (Visit 5) and Day 84 (Visit 7), as measured by Social Cognition Panel scales (PET, RMET, TEQ, SVO, SSR). • g. Differences in cognitive effects of psilocybin between psilocybin-naïve and experienced subjects at Baseline (Day −1 [Visit 2]), Day 7 (Visit 5) and Day 28 (Visit 6), as measured by a composite score of the CANTAB Panel (SWM, RVP, PAL). • h. Differences in Positive and Negative Affect Schedule (PANAS) after study drug administration on Day 0 (Visit 3). • i. Differences between psilocybin and placebo in the Emotion Recognition Test (ERT), Intra-Extra Dimensional Set Shift (IED), One Touch Stockings (OTS), Verbal Fluency and Digit Span Forward at Day 7 (Visit 5). • j. A composite score of the CANTAB Panel, including the following tests: • i. Spatial Working Memory (SWM) (performed at Visit 2, Visit 5, and Visit 6). • ii. Rapid Visual Information Processing (RVP) (performed at Visit 2, Visit 5, and Visit 6). • iii. Paired Associates Learning (PAL) (performed at Visit 2, Visit 5, and Visit 6). • k. Cognitive Flexibility Panel • i. Emotion Recognition Task (ERT) (performed at Visit 5). • ii. Intra-Extra Dimensional Set Shift (IED) (performed at Visit 5). • iii. One Touch Stockings (OTS) (performed at Visit 5). • iv. Verbal Fluency (performed at Visit 5). • v. Digit Span Forward (performed at Visit 5). • l. Five Dimension Altered States of Consciousness questionnaire (5D-ASC) (performed at Visit 3). • m. PANAS (performed at Visit 2 and Visit 3). • n. NEO-Five Factor Inventory (NEO-FFI) (performed at Visit 2, Visit 5, and Visit 7). • o. Symptom Checklist-90 item (SCL-90) (performed at Visit 2, Visit 5, and Visit 7). • p. Life Changes Inventory (LCI): The LCI measures changes in attitudes and values after near-death experiences often used to evaluate personal transformation following spiritually oriented experiences and practices. (performed at Visit 5 and Visit 7). • q. Social Cognition Panel scales • i. Pictorial Empathy Test (PET) (performed at Visit 2, Visit 5, and Visit 7). • ii. Reading the Mind in the Eyes Test (RMET) (performed at Visit 2, Visit 5, and Visit 7). • iii. Social Value Orientation (SVO) (performed at Visit 2, Visit 5, and Visit 7). • iv. Toronto Empathy Questionnaire (TEQ) (performed at Visit 2, Visit 5, and Visit 7). • v. […]

`CN(C)CCc1c[nH]c2cccc(OP(=O)(O)O)c12` [psilocybin] was tested, and the “SVO angle change from baseline, LS mean difference Psilocybin 10 mg - Placebo” value (Day 7, MMRM) was 3.4, the “SVO angle change from baseline, LS mean difference Psilocybin 25 mg - Placebo” value (Day 7, MMRM) was 2.1 and the “SVO angle change from baseline, LS mean difference Psilocybin 25 mg-10 mg” value (Day 7, MMRM) was −1.3. For the same compound, the “SVO type change from baseline, LS mean difference Psilocybin 10 mg - Placebo” value (Day 7, MMRM) was 0.1, the “SVO type change from baseline, LS mean difference Psilocybin 25 mg - Placebo” value (Day 7, MMRM) was 0.1 and the “SVO type change from baseline, LS mean difference Psilocybin 25 mg-10 mg” value (Day 7, MMRM) was −0.0. For the same compound, the “SVO angle change from baseline, LS mean difference Psilocybin 10 mg - Placebo” value (Day 84, MMRM) was 3.4, the “SVO angle change from baseline, LS mean difference Psilocybin 25 mg - Placebo” value (Day 84, MMRM) was 2.4 and the “SVO angle change from baseline, LS mean difference Psilocybin 25 mg-10 mg” value (Day 84, MMRM) was −1.0. The “SVO type change from baseline, LS mean difference Psilocybin 10 mg - Placebo” value (Day 84, MMRM) was 0.1, the “SVO type change from baseline, LS mean difference Psilocybin 25 mg - Placebo” value (Day 84, MMRM) was 0.1 and the “SVO type change from baseline, LS mean difference Psilocybin 25 mg-10 mg” value (Day 84, MMRM) was −0.0.
